Laboratory results taken from patent US6897244B2, “Dihydronootkatone and tetrahydronootkatone as repellents to arthropods” (Board of Supervisors of Louisiana State University and …, priority 2002, dated 2005).

Key:
cockroaches = details: previously discovered, U.S. Ser. No. 09/932,555; cited from earlier work
[1] = system: Formosan subterranean termites; experiment: Petri dish treated/untreated sand bioassay for repelling activity against termites; format: in vivo, Coptotermes formosanus; set-up: key to percent of termites on untreated sand vs expected value of 50% (Chi-Square, p≦0.05): “−” indicates the test was not significantly different from the expected value; “+” indicates the test was significantly different from the expected value
Experimental: A carton nest (colony A) of Formosan subterranean termites was collected in Algiers, Louisiana in November 1997, and held in 250-liter cans. The cans were filled with pine as a food source, and kept at a temperature range of 24-26° C. Moistened corrugated cardboard rolls were used to retrieve termites from the cans. Once the termites migrated to the cardboard rolls, they were gently knocked from the cardboard rolls into clean rectangular plastic trays (40 cm×50 cm). Retrieved termites were isolated from debris by allowing them to cling to sheets of moistened paper towels. The average weight of each termite was 1.21 mg.
To test for effectiveness of nootkatone, 1,10-dihydronootkatone and tetrahydronootkatone in repelling termites, a bioassay was conducted using Petri dishes (5 cm diameter and 1 cm height). To ensure adequate moisture for the termites, 1 ml of a hot agar solution (1.5% in H2O) was spread on the bottom of the Petri dish. After the agar cooled, sand that was treated as described below was spread on the bottom of the Petri dish. For the treated sand, purified 1,10-dihydronootkatone or tetrahydronootkatone were dissolved in 2 ml ethanol, and then diluted to achieve final concentrations of 1, 2, 5, 12.5, 25, 50, and 100 μg/g sand. The solution was mixed with 1 g sand that had been autoclaved and cooled. The control sand was autoclaved sand with only 200 μl ethanol added. One half of the surfaces in the Petri dishes were covered with 1 g treated sand, and the other half with 1 g untreated sand.
The prepared Petri dishes were then used to evaluate the repelling activity against Formosan subterranean termites. Ten worker termites were added to each Petri dish, and the dishes were covered to eliminate light. Five replicate dishes were tested for each concentration and for the control. Termite position was recorded every 15 min during the first hour of testing by counting the number of termites observed on untreated sand. After the first hour, termite position was recorded each hour for 3 hr.
Differences between the percent of termites on untreated sand and an expected value were statistically analyzed by a Chi-Square analysis, using an expected value of 50% and a significance level of p≦0.05.

fleas = details: previously demonstrated, U.S. Ser. No. 09/932,555; cited from earlier work
ants = details: previously discovered, U.S. Ser. No. 09/932,555; cited from earlier work
ticks = details: previously discovered, U.S. Ser. No. 09/932,555; cited from earlier work

In the case of `C=C(C)C1CCC2=CC(=O)CC(C)C2(C)C1` (centres unmarked) [Nootkatone, 4,4a,5,6,7,8-hexahydro-6-isopropenyl-4,4a-dimethyl-2(3H)-naphthalenone], the activity against cockroaches (cockroaches) is given as “repellent”, the “percent of termites on untreated sand vs expected value of 50% (Chi-Square, p≦0.05)” value (“percent … of 50% (Chi-Square, p≦0.05)” for short) ([1]; 2 μg/dish, 0.25 hour) is given as “−” and the “percent … of 50% (Chi-Square, p≦0.05)” value ([1]; 2 μg/dish, 0.5 hour) is given as “−”. For the same compound, the “percent … of 50% (Chi-Square, p≦0.05)” value ([1]; 2 μg/dish, 0.75 hour) was “−”, the “percent … of 50% (Chi-Square, p≦0.05)” value ([1]; 2 μg/dish, 1 hour) was “−” and the “percent … of 50% (Chi-Square, p≦0.05)” value ([1]; 2 μg/dish, 2 hour) was “−”. The “percent … of 50% (Chi-Square, p≦0.05)” value ([1]; 2 μg/dish, 3 hour) was “−”, the “percent … of 50% (Chi-Square, p≦0.05)” value ([1]; 5 μg/dish, 0.25 hour) was “−” and the “percent … of 50% (Chi-Square, p≦0.05)” value ([1]; 5 μg/dish, 0.5 hour) was “−”. For the same compound, the “percent … of 50% (Chi-Square, p≦0.05)” value ([1]; 5 μg/dish, 0.75 hour) was “−”, the “percent … of 50% (Chi-Square, p≦0.05)” value ([1]; 5 μg/dish, 1 hour) was “−” and the “percent … of 50% (Chi-Square, p≦0.05)” value ([1]; 5 μg/dish, 2 hour) was “−”. The “percent … of 50% (Chi-Square, p≦0.05)” value ([1]; 5 μg/dish, 3 hour) was “−”, the “percent … of 50% (Chi-Square, p≦0.05)” value ([1]; 12.5 μg/dish, 0.25 hour) was “−” and the “percent … of 50% (Chi-Square, p≦0.05)” value ([1]; 12.5 μg/dish, 0.5 hour) was “−”. For the same compound, the “percent … of 50% (Chi-Square, p≦0.05)” value ([1]; 12.5 μg/dish, 0.75 hour) was “−”, the “percent … of 50% (Chi-Square, p≦0.05)” value ([1]; 12.5 μg/dish, 1 hour) was “−” and the “percent … of 50% (Chi-Square, p≦0.05)” value ([1]; 12.5 μg/dish, 2 hour) was “−”. For the same compound, the “percent … of 50% (Chi-Square, p≦0.05)” value ([1]; 12.5 μg/dish, 3 hour) was “−”, the “percent … of 50% (Chi-Square, p≦0.05)” value ([1]; 25 μg/dish, 0.25 hour) was “−” and the “percent … of 50% (Chi-Square, p≦0.05)” value ([1]; 25 μg/dish, 0.5 hour) was “−”. The “percent … of 50% (Chi-Square, p≦0.05)” value ([1]; 25 μg/dish, 0.75 hour) was “−”, the “percent … of 50% (Chi-Square, p≦0.05)” value ([1]; 25 μg/dish, 1 hour) was “−” and the “percent … of 50% (Chi-Square, p≦0.05)” value ([1]; 25 μg/dish, 2 hour) was “−”. For the same compound, the “percent … of 50% (Chi-Square, p≦0.05)” value ([1]; 25 μg/dish, 3 hour) was “−”, the “percent … of 50% (Chi-Square, p≦0.05)” value ([1]; 50 μg/dish, 0.25 hour) was “+” and the “percent … of 50% (Chi-Square, p≦0.05)” value ([1]; 50 μg/dish, 0.5 hour) was “−”. For the same compound, the “percent … of 50% (Chi-Square, p≦0.05)” value ([1]; 50 μg/dish, 0.75 hour) was “−”, the “percent … of 50% (Chi-Square, p≦0.05)” value ([1]; 50 μg/dish, 1 hour) was “+” and the “percent … of 50% (Chi-Square, p≦0.05)” value ([1]; 50 μg/dish, 2 hour) was “−”. For the same compound, the “percent … of 50% (Chi-Square, p≦0.05)” value ([1]; 50 μg/dish, 3 hour) was “−”, the “percent … of 50% (Chi-Square, p≦0.05)” value ([1]; 100 μg/dish, 0.25 hour) was “+” and the “percent … of 50% (Chi-Square, p≦0.05)” value ([1]; 100 μg/dish, 0.5 hour) was “+”. The “percent … of 50% (Chi-Square, p≦0.05)” value ([1]; 100 μg/dish, 0.75 hour) was “+”, the “percent … of 50% (Chi-Square, p≦0.05)” value ([1]; 100 μg/dish, 1 hour) was “+” and the “percent … of 50% (Chi-Square, p≦0.05)” value ([1]; 100 μg/dish, 2 hour) was “+”. For the same compound, the “percent … of 50% (Chi-Square, p≦0.05)” value ([1]; 100 μg/dish, 3 hour) was “+”, the “concentration required for a significant effect of the treated sand on termite distribution” value ([1]; time periods greater than 1 hr) was 100 μg/dish and the effect on fleas (fleas) was “not affected”. For the same compound, the activity against ants (ants) was “significant repellent and toxicant” and the activity against ticks (ticks) was “significant repellent and toxicant”.
